These results are taken from patent US20240300932A1, “N-PHENYLIMINE DERIVATIVE AND PREPARATION METHOD AND USE THEREOF” (Guizhou University, priority 2023, published 2024).

Assay in all cases: Post-emergence herbicidal activity test (stem and leaf spray, pot culture)
Common to all, as to type: in vivo
Common to all, as to details: 3 weeks after spraying

In assay [1] the test system is Setaria viridis. Summed up: (§1)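 Pot-grown weeds in loam (pH 7, 1.63% organic matter) were spray-treated on stems and leaves at the 2- to 3-leaf stage with compound in acetone/Tween 80 plus 1.5 liters/ha methyl oleate at 10, 5 or 2.5 g/mu. Fresh-weight growth control was scored 3 weeks later as grades 0–5.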
The test system of assay [2] is Abutilon theophrasti. Summed up: as §1
The test system of assay [3] is Portulaca oleracea. Summed up:
as §1

For assay [4], the system named is Amaranthus retroflexus. Summed up: as §1
Assay [5] has as its system Echinochloa crusgalli. Summed up: as §1
In assay [6] the test system is Trifoliumre pensL. Summed up: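 Pot-grown weeds in loam (pH 7), greenhouse at 20–30 °C, sprayed once post-emergence at the 2–3-leaf stage. Compound in acetone with Tween 80 plus methyl oleate oil (1.5 L/ha), applied at 10, 5 and 2.5 g/mu by spray tower. Effect scored 3 weeks after spraying, averaged over three repeats.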

In the case of `O=C1C2=C(CCCC2)C(=O)N1c1cc(OCc2nc(-c3ccc(Cl)cc3F)no2)c(Cl)cc1F` [Compound A7], the “Post-emergence herbicidal activity, S. viridis (grade)” value in assay [1] (dosage 2.5 g/mu) was 2 (Grade 2: the growth control rate is greater than or equal to 20% and less than 40%); in assay [1] (dosage 5 g/mu) it was 3 (Grade 3: the growth control rate is greater than or equal to 40% and less than 60%); in assay [1] (dosage 10 g/mu), 4 (Grade 4: the growth control rate is greater than or equal to 60% and less than 85%). Also, the “Post-emergence herbicidal activity, A. theophrasti (grade)” value in assay [2] (dosage 2.5 g/mu), in assay [2] (dosage 5 g/mu) and in assay [2] (dosage 10 g/mu) was 5 (Grade 5: the growth control rate is greater than or equal to 85%) throughout. For the same compound, the “Post-emergence herbicidal activity, P. oleracea (grade)” value in assay [3] (dosage 2.5 g/mu) is 4 (Grade 4: the growth control rate is greater than or equal to 60% and less than 85%); in assay [3] (dosage 5 g/mu), 5 (Grade 5: the growth control rate is greater than or equal to 85%); in assay [3] (dosage 10 g/mu), 5 (Grade 5: the growth control rate is greater than or equal to 85%). The “Post-emergence herbicidal activity, A. retroflexus (grade)” value in assay [4] (dosage 2.5 g/mu), in assay [4] (dosage 5 g/mu) and in assay [4] (dosage 10 g/mu) was 5 (Grade 5: the growth control rate is greater than or equal to 85%) each time. Moreover, the “Post-emergence herbicidal activity, E. crusgalli (grade)” value was 1 (Grade 1: the growth control rate is greater than or equal to 5% and less than 20%) in assay [5] (dosage 2.5 g/mu); 2 (Grade 2: the growth control rate is greater than or equal to 20% and less than 40%) in assay [5] (dosage 5 g/mu); 3 (Grade 3: the growth control rate is greater than or equal to 40% and less than 60%) in assay [5] (dosage 10 g/mu). Moreover, the “Post-emergence herbicidal activity, Trifoliumre pensL. (grade)” value in assay [6] (dosage 2.5 g/mu) was 4 (Grade 4: the growth control rate is greater than or equal to 60% and less than 85%); in assay [6] (dosage 5 g/mu), 5 (Grade 5: the growth control rate is greater than or equal to 85%); in assay [6] (dosage 10 g/mu), 5 (Grade 5: the growth control rate is greater than or equal to 85%).

With `O=C1C2=C(CCCC2)C(=O)N1c1cc(OCc2nnc(-c3ccccc3[N+](=O)[O-])o2)c(Cl)cc1F` [Compound B8], the “Post-emergence herbicidal activity, S. viridis (grade)” value in assay [1] (dosage 2.5 g/mu) is 2 (Grade 2: the growth control rate is greater than or equal to 20% and less than 40%); in assay [1] (dosage 5 g/mu), 3 (Grade 3: the growth control rate is greater than or equal to 40% and less than 60%); in assay [1] (dosage 10 g/mu), 4 (Grade 4: the growth control rate is greater than or equal to 60% and less than 85%). The “Post-emergence herbicidal activity, A. theophrasti (grade)” value in assay [2] (dosage 2.5 g/mu), in assay [2] (dosage 5 g/mu) and in assay [2] (dosage 10 g/mu) was 5 (Grade 5: the growth control rate is greater than or equal to 85%) in each case. Also, the “Post-emergence herbicidal activity, P. oleracea (grade)” value in assay [3] (dosage 2.5 g/mu), in assay [3] (dosage 5 g/mu) and in assay [3] (dosage 10 g/mu) was 5 (Grade 5: the growth control rate is greater than or equal to 85%) each time. Also, the “Post-emergence herbicidal activity, A. retroflexus (grade)” value in assay [4] (dosage 2.5 g/mu), in assay [4] (dosage 5 g/mu) and in assay [4] (dosage 10 g/mu) was 5 (Grade 5: the growth control rate is greater than or equal to 85%) each time. In addition, the “Post-emergence herbicidal activity, E. crusgalli (grade)” value in assay [5] (dosage 2.5 g/mu) is 1 (Grade 1: the growth control rate is greater than or equal to 5% and less than 20%); in assay [5] (dosage 5 g/mu) it was 2 (Grade 2: the growth control rate is greater than or equal to 20% and less than 40%); in assay [5] (dosage 10 g/mu) it was 3 (Grade 3: the growth control rate is greater than or equal to 40% and less than 60%). The “Post-emergence herbicidal activity, Trifoliumre pensL. (grade)” value in assay [6] (dosage 2.5 g/mu), in assay [6] (dosage 5 g/mu) and in assay [6] (dosage 10 g/mu) was 5 (Grade 5: the growth control rate is greater than or equal to 85%) in each case.

As for `O=C1C2=C(CCCC2)C(=O)N1c1cc(OCc2nc(-c3ccc(Br)cc3Br)no2)c(Cl)cc1F` [Compound A11], the “Post-emergence herbicidal activity, S. viridis (grade)” value in assay [1] (dosage 2.5 g/mu) is 2 (Grade 2: the growth control rate is greater than or equal to 20% and less than 40%); in assay [1] (dosage 5 g/mu) it was 3 (Grade 3: the growth control rate is greater than or equal to 40% and less than 60%); in assay [1] (dosage 10 g/mu), 4 (Grade 4: the growth control rate is greater than or equal to 60% and less than 85%). Moreover, the “Post-emergence herbicidal activity, A. theophrasti (grade)” value in assay [2] (dosage 2.5 g/mu), in assay [2] (dosage 5 g/mu) and in assay [2] (dosage 10 g/mu) was 5 (Grade 5: the growth control rate is greater than or equal to 85%) throughout. The “Post-emergence herbicidal activity, P. oleracea (grade)” value in assay [3] (dosage 2.5 g/mu) is 4 (Grade 4: the growth control rate is greater than or equal to 60% and less than 85%); in assay [3] (dosage 5 g/mu) it was 5 (Grade 5: the growth control rate is greater than or equal to 85%); in assay [3] (dosage 10 g/mu), 5 (Grade 5: the growth control rate is greater than or equal to 85%). Besides, the “Post-emergence herbicidal activity, A. retroflexus (grade)” value in assay [4] (dosage 2.5 g/mu), in assay [4] (dosage 5 g/mu) and in assay [4] (dosage 10 g/mu) was 5 (Grade 5: the growth control rate is greater than or equal to 85%) in each case. Further, the “Post-emergence herbicidal activity, E. crusgalli (grade)” value is 1 (Grade 1: the growth control rate is greater than or equal to 5% and less than 20%) in assay [5] (dosage 2.5 g/mu); 2 (Grade 2: the growth control rate is greater than or equal to 20% and less than 40%) in assay [5] (dosage 5 g/mu); 3 (Grade 3: the growth control rate is greater than or equal to 40% and less than 60%) in assay [5] (dosage 10 g/mu). Also, the “Post-emergence herbicidal activity, Trifoliumre pensL. (grade)” value in assay [6] (dosage 2.5 g/mu) was 4 (Grade 4: the growth control rate is greater than or equal to 60% and less than 85%); in assay [6] (dosage 5 g/mu) it was 5 (Grade 5: the growth control rate is greater than or equal to 85%); in assay [6] (dosage 10 g/mu) it was 5 (Grade 5: the growth control rate is greater than or equal to 85%).

As for `O=C1C2=C(CCCC2)C(=O)N1c1cc(OCc2nc(-c3ccco3)no2)c(Cl)cc1F` [Compound A22], the “Post-emergence herbicidal activity, S. viridis (grade)” value in assay [1] (dosage 2.5 g/mu) was 2 (Grade 2: the growth control rate is greater than or equal to 20% and less than 40%); in assay [1] (dosage 5 g/mu), 3 (Grade 3: the growth control rate is greater than or equal to 40% and less than 60%); in assay [1] (dosage 10 g/mu), 4 (Grade 4: the growth control rate is greater than or equal to 60% and less than 85%). Further, the “Post-emergence herbicidal activity, A. theophrasti (grade)” value in assay [2] (dosage 2.5 g/mu), in assay [2] (dosage 5 g/mu) and in assay [2] (dosage 10 g/mu) was 5 (Grade 5: the growth control rate is greater than or equal to 85%) throughout. The “Post-emergence herbicidal activity, P. oleracea (grade)” value is 4 (Grade 4: the growth control rate is greater than or equal to 60% and less than 85%) in assay [3] (dosage 2.5 g/mu); 5 (Grade 5: the growth control rate is greater than or equal to 85%) in assay [3] (dosage 5 g/mu); 5 (Grade 5: the growth control rate is greater than or equal to 85%) in assay [3] (dosage 10 g/mu). Moreover, the “Post-emergence herbicidal activity, A. retroflexus (grade)” value in assay [4] (dosage 2.5 g/mu), in assay [4] (dosage 5 g/mu) and in assay [4] (dosage 10 g/mu) was 5 (Grade 5: the growth control rate is greater than or equal to 85%) throughout. Also, the “Post-emergence herbicidal activity, E. crusgalli (grade)” value in assay [5] (dosage 2.5 g/mu) is 1 (Grade 1: the growth control rate is greater than or equal to 5% and less than 20%); in assay [5] (dosage 5 g/mu), 2 (Grade 2: the growth control rate is greater than or equal to 20% and less than 40%); in assay [5] (dosage 10 g/mu) it was 3 (Grade 3: the growth control rate is greater than or equal to 40% and less than 60%). Moreover, the “Post-emergence herbicidal activity, Trifoliumre pensL. (grade)” value is 4 (Grade 4: the growth control rate is greater than or equal to 60% and less than 85%) in assay [6] (dosage 2.5 g/mu); 5 (Grade 5: the growth control rate is greater than or equal to 85%) in assay [6] (dosage 5 g/mu); 5 (Grade 5: the growth control rate is greater than or equal to 85%) in assay [6] (dosage 10 g/mu).
